Each structure is given as a SMILES string. pIC50: −log10 of the molar value. Read-outs that look alike come from different tables or passages of the source.

This passage reports IC50 results from US20260199323A1, “LIGAND COMPOUNDS FOR E3 UBIQUITIN LIGASE, PROTEIN DEGRADERS DEVELOPED ON BASIS OF LIGAND COMPOUNDS, AND USES THEREOF” (GLUETACS THERAPEUTICS (SHANGHAI) CO., LTD., priority 2021, published 2026).

One assay deals with Hep3B2.7-1. The experiment in a line: CCK-8 tumor cell proliferation, Hep3B2.7-1. It counts as cell-based, Human. The note with it: Homo sapiens. How it is done:
(§1) The tumor cells used herein were cultured in a cell culture medium listed in table 4 at 37° C. in an incubator with 5% CO2. Prior to experimentation, all cells used were correctly identified by STR profiling, and tested negative for mycoplasma through routine screenings.
(§2) IC50 values of the compounds of the present disclosure (including the compounds in Tables 1 and 3, and compounds of examples) were measured using the Meilun Cell Counting Kit-8 kit from Dalian Meilun Biotech Co., Ltd. Assay details are as follows: tumor cells were seeded in a 96-well plate at a density listed in Table 5. After 24 h, 100 μL of the inoculated cells were treated with 0.5 μL of the compounds of the present disclosure (including the compounds in Tables 1 and 3, and compounds of examples) at 10 different successively decreasing concentrations (starting at the highest concentration of 10 μM; 5-fold serial dilutions). After the cells were treated with the compounds of the present disclosure for a period of time, the cell viability detection reagent was added to the culture medium for cell viability assessment according to the instructions provided with the CCK-8 kit. […] The growth inhibition of the compounds of the present disclosure on cells was plotted by Prism Graphpad software, and the IC50 values of the compounds of the present disclosure were calculated therefrom.

The next assay concerns Kasumi-1. The experiment in a line: CCK-8 tumor cell proliferation, Kasumi-1. The note with it: Homo sapiens, Kasumi-1, read-out: IC50 inhibiting proliferation of tumor cells, Kasumi-1. In kind it is cell-based, Human. The method, then: as §1, §2
A further assay deals with Jurkat. The experiment in a line: CCK-8 tumor cell proliferation, Jurkat. It counts as cell-based, Human. The note with it: Homo sapiens, read-out: IC50 inhibiting proliferation of tumor cells, Jurkat. An outline of the steps:
(§3)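 Using the CCK-8 kit, viability of plated cells is assessed after exposure to compound across ten concentrations (5-fold serial dilution, top 10 μM) added at 24 h. IC50 is obtained by curve fitting of growth inhibition.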

The next assay deals with CCRF-CEM. The assay can be described thus: CCK-8 tumor cell proliferation, CCRF-CEM. In kind it is cell-based, Human. The note with it: Homo sapiens, CCRF-CEM, read-out: IC50 inhibiting proliferation of tumor cells, CCRF-CEM. An outline of the steps: as §3
In another assay the test system is MM.1R. The assay can be described thus: CCK-8 tumor cell proliferation, MM.1R. The note with it: read-out: IC50 inhibiting proliferation of tumor cells, MM.1R. In kind it is cell-based. The method, then:
as §1, §2

The next assay deals with LNcap. The experiment in a line: CCK-8 tumor cell proliferation, LNcap. The note with it: Homo sapiens; Table 19, IRAK4 inhibitor based; Lncap; read-out: IC50 inhibiting proliferation of tumor cells, Lncap. In kind it is cell-based, Human. How it is done:
as §1, §2

A further assay relates to CAL-62. The assay can be described thus: CCK-8 tumor cell proliferation, CAL-62. The note with it: Homo sapiens, CAL-62, read-out: IC50 inhibiting proliferation of tumor cells, CAL-62. In kind it is cell-based, Human. The gist of the method: as §3
Another assay has as its system SW620. The experiment in a line: CCK-8 tumor cell proliferation, SW620. The note with it: Homo sapiens, SW-620, SW620, read-out: IC50 inhibiting proliferation of tumor cells, SW620. It counts as cell-based, Human. The gist of the method: as §3
In a further assay the test system is MM.1S. The assay can be described thus: CCK-8 tumor cell proliferation, MM.1S. The note with it: Homo sapiens, MM1.S; Table 18, FAK inhibitor based; MM.1S; read-out: IC50 inhibiting proliferation of tumor cells, MM.1S. It counts as cell-based. An outline of the steps: as §3
Where [1] appears, read: Table 19, IRAK4 inhibitor based, Hep3B2.7-1, read-out: IC50 inhibiting proliferation of tumor cells, Hep3B2.7-1.
The mark [2] stands for this setting: Table 19, IRAK4 inhibitor based.
Where [3] appears, read: Table 22, NTRK inhibitor based, HEP3B2.7-1, read-out: IC50 inhibiting proliferation of tumor cells, HEP3B2.7-1.

For `O=C1CCC(N2Cc3c(ccc(CN4CCN(c5ccc(-n6cc(NC(=O)c7coc(-c8ccnc(NCC(F)(F)F)c8)n7)c(C(F)F)n6)cc5)CC4)c3F)C2=O)C(=O)N1` (centres unmarked) [GT-04268, N-(3-(difluoromethyl)-1-(4-(4-((2-(2,6-dioxopiperidin-3-yl)-4-fluoro-1-oxoisoindolin-5-yl)methyl)piperazin-1-yl)phenyl)-1H-pyrazol-4-yl)-2-(2-((2,2,2-trifluoroethyl)amino)pyridin-4-yl)oxazole-4-carboxamide], the pIC50 with Hep3B2.7-1 (setting [1]) is 6.00 to 6.30; in the assay on Kasumi-1 (setting [2]), 6.30 to 7.00; in the assay with Jurkat (setting [2]) it was 6.00 to 6.30.
Regarding `O=C1CCC(N2Cc3cc(CN4CCN(c5cccc(-c6cnn7ccc(N8CCC[C@@H]8c8cc(F)ccc8F)nc67)n5)CC4)ccc3C2=O)C(=O)N1` (stereo partly drawn) [GT-04262, 3-(5-((4-(6-(5-((R)-2-(2,5-difluorophenyl)pyrrolidin-1-yl)pyrazolo[1,5-a]pyrimidin-3-yl)pyridin-2-yl)piperazin-1-yl)methyl)-1-oxoisoindolin-2-yl)piperidine-2,6-dione], the pIC50 with Hep3B2.7-1 (setting [3]) was above 7.30; in the assay on CCRF-CEM (Table 22, NTRK inhibitor based), above 7.30; in the assay on Kasumi-1 (Table 22, NTRK inhibitor based), 6.30 to 7.00; in the assay with MM.1R (Table 22, NTRK inhibitor based), above 7.30; in the assay on Jurkat (Table 22, NTRK inhibitor based) it was 6.30 to 7.00.
As to `O=C1CCC(N2Cc3c(ccc(CN4CCN(c5cccc(-c6cnn7ccc(N8CCC[C@@H]8c8cc(F)ccc8F)nc67)n5)CC4)c3F)C2=O)C(=O)N1` (stereo partly drawn) [GT-04263, 3-(5-((4-(6-(5-((R)-2-(2,5-difluorophenyl)pyrrolidin-1-yl)pyrazolo[1,5-a]pyrimidin-3-yl)pyridin-2-yl)piperazin-1-yl)methyl)-4-fluoro-1-oxoisoindolin-2-yl)piperidine-2,6-dione], the pIC50 with Hep3B2.7-1 (setting [3]) is above 7.30; in the assay on CCRF-CEM (Table 22, NTRK inhibitor based) it was 7.00 to 7.30; in the assay on Kasumi-1 (Table 22, NTRK inhibitor based) it was 6.00 to 6.30; in the assay on MM.1R (Table 22, NTRK inhibitor based), above 7.30; with Jurkat (Table 22, NTRK inhibitor based), 6.30 to 7.00.
On to `O=C1CCC(N2Cc3c(CN4CCN(c5ccc(-n6cc(NC(=O)c7coc(-c8ccnc(NCC(F)(F)F)c8)n7)c(C(F)F)n6)cc5)CC4)cccc3C2=O)C(=O)N1` (centres unmarked) [GT-04271, N-(3-(difluoromethyl)-1-(4-(4-((2-(2,6-dioxopiperidin-3-yl)-1-oxoisoindolin-4-yl)methyl)piperazin-1-yl)phenyl)-1H-pyrazol-4-yl)-2-(2-((2,2,2-trifluoroethyl)amino)pyridin-4-yl)oxazole-4-carboxamide], for which the pIC50 in the assay on Hep3B2.7-1 (setting [1]) was above 7.30; in the assay on CCRF-CEM (setting [2]), above 7.30; in the assay with LNcap, 7.00 to 7.30; in the assay on Kasumi-1 (setting [2]), above 7.30; in the assay on MM.1R (setting [2]), above 7.30; with Jurkat (setting [2]) it was above 7.30.
Regarding `O=C1CCC(N2Cc3cc(CN4CCN(c5ccc(-n6cc(NC(=O)c7coc(-c8ccnc(NCC(F)(F)F)c8)n7)c(C(F)F)n6)cc5)CC4)cc(F)c3C2=O)C(=O)N1` (centres unmarked) [GT-04270, N-(3-(difluoromethyl)-1-(4-(4-((2-(2,6-dioxopiperidin-3-yl)-7-fluoro-1-oxoisoindolin-5-yl)methyl)piperazin-1-yl)phenyl)-1H-pyrazol-4-yl)-2-(2-((2,2,2-trifluoroethyl)amino)pyridin-4-yl)oxazole-4-carboxamide], the pIC50 in the assay with Hep3B2.7-1 (setting [1]) is 6.00 to 6.30; in the assay with Kasumi-1 (setting [2]), 6.30 to 7.00; in the assay with Jurkat (setting [2]), 6.30 to 7.00.
On to `CNC(=O)c1ccccc1Nc1cc(Nc2cc(C)c(C3CCN(Cc4ccc5c(c4)CN(C4CCC(=O)NC4=O)C5=O)CC3)cc2OC(C)C)ncc1C(F)(F)F` (centres unmarked) [GT-04078, 2-((2-((4-(1-((2-(2,6-dioxopiperidin-3-yl)-1-oxoisoindolin-5-yl)methyl)piperidin-4-yl)-2-isopropoxy-5-methylphenyl)amino)-5-(trifluoromethyl)pyridin-4-yl)amino)-N-methylbenzamide], for which the pIC50 is above 7.30 in the assay with CAL-62 (Table 18, FAK inhibitor based); above 7.30 in the assay with Hep3B2.7-1 (Table 18, FAK inhibitor based, HEP3B2.7-1, read-out: IC50 inhibiting proliferation of tumor cells, HEP3B2.7-1); 6.30 to 7.00 with SW620 (Table 18, FAK inhibitor based); above 7.30 with CCRF-CEM (Table 18, FAK inhibitor based); above 7.30 in the assay on MM.1S.
Turning to `O=C1CCC(N2C(=O)c3ccc(CN4CCC(n5cc(NC(=O)c6coc(-c7ccnc(NCC(F)(F)F)c7)n6)c(C(F)F)n5)CC4)cc3C2=O)C(=O)N1` (centres unmarked) [GT-04088, N-(3-(difluoromethyl)-1-(1-((2-(2,6-dioxopiperidin-3-yl)-1,3-dioxoisoindolin-5-yl)methyl)piperidin-4-yl)-1H-pyrazol-4-yl)-2-(2-((2,2,2-trifluoroethyl)amino)pyridin-4-yl)oxazole-4-carboxamide], the pIC50 with CAL-62 (setting [2]) is above 7.30; in the assay on SW620 (setting [2]), 6.30 to 7.00; with CCRF-CEM (setting [2]), above 7.30; in the assay on LNcap, 6.30 to 7.00; with Jurkat (setting [2]), above 7.30.
Consider `O=C1CCC(N2Cc3cc(CN4CCN(c5ccc(-n6cc(NC(=O)c7coc(-c8ccnc(NCC(F)(F)F)c8)n7)c(C(F)F)n6)cc5)CC4)ccc3C2=O)C(=O)N1` (centres unmarked) [GT-04267, N-(3-(difluoromethyl)-1-(4-(4-((2-(2,6-dioxopiperidin-3-yl)-1-oxoisoindolin-5-yl)methyl)piperazin-1-yl)phenyl)-1H-pyrazol-4-yl)-2-(2-((2,2,2-trifluoroethyl)amino)pyridin-4-yl)oxazole-4-carboxamide], for which the figures for the pIC50 in the assay on Hep3B2.7-1 (setting [1]), in the assay on Kasumi-1 (setting [2]) and in the assay on Jurkat (setting [2]) were 6.30 to 7.00, 6.30 to 7.00 and 6.00 to 6.30, respectively.
For `O=C1CCC(N2C(=O)c3ccc(CN4CCC(n5cc(NC(=O)c6coc(-c7ccnc(NCC8CC8)c7)n6)c(C(F)F)n5)CC4)cc3C2=O)C(=O)N1` (centres unmarked) [GT-04174, 2-(2-((cyclopropylmethyl)amino)pyridin-4-yl)-N-(3-(difluoromethyl)-1-(1-((2-(2,6-dioxopiperidin-3-yl)-1,3-dioxoisoindolin-5-yl)methyl)piperidin-4-yl)-1H-pyrazol-4-yl)oxazole-4-carboxamide], the pIC50 was above 7.30 with CAL-62 (setting [2]); 6.30 to 7.00 in the assay with SW620 (setting [2]); above 7.30 with CCRF-CEM (setting [2]); 6.00 to 6.30 in the assay with LNcap; 7.00 to 7.30 with Jurkat (setting [2]).
Regarding `O=C1CCC(N2Cc3c(CN4CCC(n5cc(NC(=O)c6coc(-c7ccnc(NCC8CC8)c7)n6)c(C(F)F)n5)CC4)cccc3C2=O)C(=O)N1` (centres unmarked) [GT-04173, 2-(2-((cyclopropylmethyl)amino)pyridin-4-yl)-N-(3-(difluoromethyl)-1-(1-((2-(2,6-dioxopiperidin-3-yl)-1-oxoisoindolin-4-yl)methyl)piperidin-4-yl)-1H-pyrazol-4-yl)oxazole-4-carboxamide], the pIC50 was 5.30 to 6.00 in the assay with CAL-62 (setting [2]); 5.30 to 6.00 in the assay on SW620 (setting [2]); 5.30 to 6.00 in the assay on CCRF-CEM (setting [2]); 6.30 to 7.00 in the assay with LNcap; 6.00 to 6.30 with Jurkat (setting [2]).
As for `O=C1CCC(N2C(=O)c3ccc(CN4CCN(c5ccc(-n6cc(NC(=O)c7coc(-c8ccnc(NCC(F)(F)F)c8)n7)c(C(F)F)n6)cc5)CC4)cc3C2=O)C(=O)N1` (centres unmarked) [GT-04272, N-(3-(difluoromethyl)-1-(4-(4-((2-(2,6-dioxopiperidin-3-yl)-1,3-dioxoisoindolin-5-yl)methyl)piperazin-1-yl)phenyl)-1H-pyrazol-4-yl)-2-(2-((2,2,2-trifluoroethyl)amino)pyridin-4-yl)oxazole-4-carboxamide], the pIC50 is 6.00 to 6.30 in the assay on Hep3B2.7-1 (setting [1]); 6.30 to 7.00 in the assay on LNcap; 7.00 to 7.30 in the assay with Kasumi-1 (setting [2]); 6.00 to 6.30 with MM.1R (setting [2]); 5.30 to 6.00 in the assay with Jurkat (setting [2]).
